Measured values: patent US8017584B2, “GD3-mimetic peptides” (Otsuka Pharmaceutical Co., Ltd., priority 2000, dated 2011)
Values joined by “and” are separate entries in the source; they are usually repeats but may differ in a detail not shown here. Identical values can stand only once.

Key:
[1] = test system: Anti-GD2 antibody; assay: ELISA of immobilized MAP-form peptides with control anti-GD2 antibody; assay type: binding; conditions: MAP form 100 ng/well
Experimental: (§1) A 0.1M NaHCO3 solution containing a GD3-mimetic peptide of the invention in the above MAP form (100 ng/100 μL) was added to the wells of a 96-well micro-titer plate, for immobilization at room temperature for one hour. Subsequently, in a manner similar to the ELISA method employed in Example 2, binding affinity of the GD3-mimetic peptide to GD3 antibody 4F6 was investigated.
(§2) Anti-GD2 antibody and anti-OAcGD3 antibody (Cerato, E., et al., Hybridoma, 16(4), 307-316 (1997)) were used as controls (these antibodies were kindly provided by from Dr. Portoukalian).

[2] = test system: Anti-OAcGD3 antibody; assay: ELISA of immobilized MAP-form peptides with control anti-OAcGD3 antibody; assay type: binding; conditions: MAP form 100 ng/well
Experimental: as §1, §2

[3] = Titer against GD3 (ELISA) of antiserum from mice immunized with MAP peptides (Example 4); assay type: in vivo, mice (C57BL/6); conditions: individual mice
Experimental: Four species of GD3-mimetic peptide (MAP) obtained in Example 3 (2) was dissolved in PBS so as to attain a concentration of 200 μg/mL. The solution was added to Freund's complete (or incomplete) adjuvant (1:1, by volume), to thereby prepare an emulsion.
Eight mice (C57BL/6) were immunized by subcutaneous administration of the above emulsion (0.2 mL/mouse, in one administration, […]). Administration was performed every two weeks (for the second and subsequent administrations, Freund's incomplete adjuvant was used). After one week following respective administrations, blood was collected from the tail of each mouse, to thereby yield antiserum.
The antiserum obtained directly after the first administration will be referred to “1-st,” that obtained after the second administration will be referred to “2-nd,” and that obtained after the third administration will be referred to “3-rd.”
The titer, against GD3, of each of the antiserum samples (3×8 mice=24 samples) obtained in the (1) above was measured through ELISA as described below.
The thus-obtained purified GD3 was dissolved in methanol, whereby a GD3 solution having a concentration of 10 μg/mL was prepared. The GD3 solution was added to the wells of a 96-well micro-titer plate in amounts of 10 μL per well (which corresponds to 100 ng GD3 per well), and methanol was evaporated. Subsequently, a blocking solution (TBS supplemented with 1% BSA) was added to the wells in amounts of 50 μL per well, for blocking at 37° C. for 4 hours.
The supernatant was discarded. Each of the antiserum samples obtained in (1) above was diluted 100-fold, 400-fold, or 1,600 fold with the above-mentioned blocking solution. The diluted antiserum (50 μL) was added to each well for reaction at 4° C. overnight. The well was washed six times with TBS, and thereafter, HRP-labeled […] diluted 5,000-fold with the blocking solution was added (50 μL per well) for reaction for 2 hours at room temperature. The well was washed four times with TBS, and thereafter, enzymatic activity (peroxidase) of the well was detected with TMB solution (50 μL). The reaction was stopped with 1N HCl (50 μL), and the value corresponding to “420 nm-620 nm” was calculated.
A control sample was prepared as follows. […] The synthesized peptide was administered to a mouse for immunization, and the obtained antiserum served as a control sample. The titer of the control sample was obtained in a manner similar to that described above. (However, the number of provided mice was five, and only a 100-fold diluted solution was used.) This control peptide sample was also used in the form of MAP as described above.

[4] = test system: T-cell-rich lymphocytes / IL-2-dependent CTLL2 cells; assay: Cell response test: IL-2 activity (3H thymidine up-take of CTLL2 cells) in supernatant of spleen cells of mice immunized with GD3; assay type: cell-based, mouse; conditions: mice immunized with GD3
Experimental: Similar to the case of immunization with R4-KLH, antiserum samples were also prepared through immunization with GD3 (30 μg).
(§3) The spleen aseptically removed from each of the above-immunized mice was minced in a 10% FCS-supplemented RPMI 1640 medium. By use of a nylon wool column, T-cell-rich lymphocytes were prepared and the cells were counted. The above medium containing the cells in an amount of 10^5 cells per 150 μL was added to each of the wells of a culture plate. PHA was added so as to attain a final concentration of 1 μg/mL. A peptide of the present invention or any of different gangliosides in PBS was added, and the mixture was incubated for 96 hours. A supernatant (100 μL) was obtained from each well. The IL-2 activity of the supernatant was determined through use of IL-2-dependent mouse cells, CTLL2. Briefly, the supernatant (100 μL) diluted 2 to 50-fold with a medium was added to the wells in an amount of 10^4 CTLL2 cells/well, followed by incubation at 37° C. for 48 hours. Subsequently, 3H-thymidine (0.5 μCi) was added to each well, followed by incubation for 6 hours. CTLL2 cells were recovered on a paper filter and counted for 3H.

[5] = test system: T-cell-rich lymphocytes / IL-2-dependent CTLL2 cells; assay: Cell response test: IL-2 activity (3H thymidine up-take of CTLL2 cells) in supernatant of spleen cells of mice immunized with R4 peptide (R4-KLH); assay type: cell-based, mouse; conditions: mice immunized with R4 peptide
Experimental: Using a fusion peptide R4-KLH obtained in Example 3 (4) between GD3R4 and KLH or a MAP form fusion peptide R4MAP-KLH created between GD3R4 and KLH, immunization was performed as described in (1) above.
Briefly, an emulsion mixed with an adjuvant (1:1, by volume) was administered to each member of groups of mice, each group consisting of 3 mice (CD-1), in an amount of 100 μL/mouse (for one administration (ip), peptide 30 μg/mouse) for immunization. In the case of R4-KLH, administration was performed every one week for one month, and subsequently every two weeks for one month; and in the case of R4MAP-KLH, every one week for 2 months. In any case, 4 days after the final immunization, blood was collected to thereby prepare antiserum samples.
as §3

[6] = stimulant 1 μg/ml, supernatant dilution 1/20
[7] = stimulant 1 μg/ml, supernatant dilution 1/50
[8] = stimulant 1 μg/ml, supernatant dilution ½
[9] = stimulant 1 μg/ml, supernatant dilution ⅕
[10] = stimulant 2 μg/ml, supernatant dilution 1/20
[11] = stimulant 2 μg/ml, supernatant dilution 1/50
[12] = stimulant 2 μg/ml, supernatant dilution ½
[13] = stimulant 2 μg/ml, supernatant dilution ⅕
[14] = stimulant 5 μg/ml, supernatant dilution 1/20
[15] = stimulant 5 μg/ml, supernatant dilution 1/50
[16] = stimulant 5 μg/ml, supernatant dilution ½
[17] = stimulant 5 μg/ml, supernatant dilution ⅕

LAPPRPRSELVFLSV (LAPPRPRSQLVFLSV) [GD3R1, tested as phage clone, MAP form or peptide]
ELISA absorbance, Anti-GD2 antibody ([1]; Serum % 12.50%): 0.065 | ELISA absorbance, Anti-GD2 antibody ([1]; Serum % 25%): 0.067 | ELISA absorbance, Anti-GD2 antibody ([1]; Serum % 50%): 0.095 | ELISA absorbance, Anti-GD2 antibody ([1]; Serum % 100%): 0.123 | ELISA absorbance, Anti-OAcGD3 antibody ([2]; Serum % 12.50%): 0.04 | ELISA absorbance, Anti-OAcGD3 antibody ([2]; Serum % 25%): 0.041 | ELISA absorbance, Anti-OAcGD3 antibody ([2]; Serum % 50%): 0.046 | ELISA absorbance, Anti-OAcGD3 antibody ([2]; Serum % 100%): 0.053 | reactivity of antiserum with GD3 (ELISA absorbance) ([3]; antiserum 1st (after first administration), dilution factor 1/100, MAP 5 μg/mouse s.c.): 0.047 and 0.106 and 0.03 and 0.055 and 0.059 and 0.061 and 0.034 and 0.052 | reactivity of antiserum with GD3 (ELISA absorbance) ([3]; antiserum 1st, dilution factor 1/400): 0.026 and 0.057 and 0.024 and 0.052 and 0.034 and 0.027 and 0.017 and 0.039 | reactivity of antiserum with GD3 (ELISA absorbance) ([3]; antiserum 1st, dilution factor 1/1600): 0 (3×) and 0.005 and 0.008 and 0.016 and 0.004 and 0.007 | reactivity of antiserum with GD3 (ELISA absorbance) ([3]; antiserum 2nd (after second administration), dilution factor 1/100): 0.087 and 0.14 and 0.188 and 0.102 and 0.117 and 0.168 and 0.054 and 0.082 | reactivity of antiserum with GD3 (ELISA absorbance) ([3]; antiserum 2nd, dilution factor 1/400): 0.027 and 0.063 and 0.088 and 0.074 and 0.047 and 0.06 and 0.039 and 0.026 | reactivity of antiserum with GD3 (ELISA absorbance) ([3]; antiserum 2nd, dilution factor 1/1600): 0.016 and 0.022 and 0.034 and 0.019 (2×) and 0.014 and 0.024 and 0.01 | reactivity of antiserum with GD3 (ELISA absorbance) ([3]; antiserum 3rd (after third administration), dilution factor 1/100): 0.068 and 0.066 and 0.084 (2×) and 0.139 and 0.121 and 0.08 and 0.023 | reactivity of antiserum with GD3 (ELISA absorbance) ([3]; antiserum 3rd, dilution factor 1/400): 0.019 and 0.017 and 0.03 (2×) and 0.054 and 0.021 and 0.051 and 0.01 | reactivity of antiserum with GD3 (ELISA absorbance) ([3]; antiserum 3rd, dilution factor 1/1600): 0 (2×) and 0.002 and 0.008 and 0.003 (2×) and 0.001 and 0.004 | 3H Thymidine up-take into CTLL2 cells, mean ± SE (4 wells) [4, 6]: 888 ± 107 | 3H Thymidine up-take into CTLL2 cells, mean ± SE (4 wells) [4, 7]: 234 ± 43 | 3H Thymidine up-take into CTLL2 cells, mean ± SE (4 wells) [4, 8]: 3014 ± 671 | 3H Thymidine up-take into CTLL2 cells, mean ± SE (4 wells) [4, 9]: 1967 ± 276 | 3H Thymidine up-take into CTLL2 cells, mean ± SE (4 wells) [4, 10]: 906 ± 121 | 3H Thymidine up-take into CTLL2 cells, mean ± SE (4 wells) [4, 11]: 246 ± 38 | 3H Thymidine up-take into CTLL2 cells, mean ± SE (4 wells) [4, 12]: 3219 ± 546 | 3H Thymidine up-take into CTLL2 cells, mean ± SE (4 wells) [4, 13]: 1831 ± 259 | 3H Thymidine up-take into CTLL2 cells, mean ± SE (4 wells) [4, 14]: 942 ± 116 | 3H Thymidine up-take into CTLL2 cells, mean ± SE (4 wells) [4, 15]: 251 ± 44 | 3H Thymidine up-take into CTLL2 cells, mean ± SE (4 wells) [4, 16]: 3344 ± 497 | 3H Thymidine up-take into CTLL2 cells, mean ± SE (4 wells) [4, 17]: 1956 ± 285 | 3H Thymidine up-take into CTLL2 cells, mean ± SE (4 wells) [5, 6]: 949 ± 136 | 3H Thymidine up-take into CTLL2 cells, mean ± SE (4 wells) [5, 7]: 225 ± 38 | 3H Thymidine up-take into CTLL2 cells, mean ± SE (4 wells) [5, 8]: 3218 ± 716 | 3H Thymidine up-take into CTLL2 cells, mean ± SE (4 wells) [5, 9]: 1876 ± 281 | 3H Thymidine up-take into CTLL2 cells, mean ± SE (4 wells) [5, 10]: 845 ± 147 | 3H Thymidine up-take into CTLL2 cells, mean ± SE (4 wells) [5, 11]: 220 ± 40 | 3H Thymidine up-take into CTLL2 cells, mean ± SE (4 wells) [5, 12]: 3417 ± 542 | 3H Thymidine up-take into CTLL2 cells, mean ± SE (4 wells) [5, 13]: 1864 ± 327 | 3H Thymidine up-take into CTLL2 cells, mean ± SE (4 wells) [5, 14]: 901 ± 152 | 3H Thymidine up-take into CTLL2 cells, mean ± SE (4 wells) [5, 15]: 236 ± 45 | 3H Thymidine up-take into CTLL2 cells, mean ± SE (4 wells) [5, 16]: 3469 ± 612 | 3H Thymidine up-take into CTLL2 cells, mean ± SE (4 wells) [5, 17]: 1781 ± 285
